Test results published in US9958436B2, “Determination of cell chirality” (THE TRUSTEES OF COLUMBIA UNIVERSITY IN THE CITY OF NEW YORK, priority 2011, dated 2018).

Assays:
[1] = system: C2C12 cells; assay: Cell chirality (alignment) on micropatterned rings, drug treatment, C2C12; format: cell-based, mouse; conditions: for CCW: counter-clockwise alignment / CW: clockwise alignment / N/S: not significantly biased to CW or CCW: C2C12 on ring patterns, count of rings; for effect on chirality of C2C12 cells: low concentrations of the actin treadmilling inhibitors; for effect on cell chirality / effect on left-right asymmetry: C2C12; for effect on cell chirality: inhibitors of tubulin dynamics at concentrations below those resulting in cell apoptosis; for effect on left-right asymmetry: drugs that affect the actomyosin motor, 0.2-10 mM Y-27632, 1-20 mM ML-7, 0.5-10 mM Blebbistatin
Experimental: (§1) Cells were maintained in tissue flasks with culture media specified in TABLE 2. After reaching 70% confluency, cells were trypsinized and seeded onto protein-coated patterned surfaces. Once the cells attached, extra cells were washed off with fresh medium. At this time drugs were added into the culture medium if necessary. Phase contrast images were taken after overnight incubation at 37° C. and 5% CO2 when cells reached confluency on the ring patterns.
(§2) To examine the role of actin in left-right (LR) asymmetry, cells were tested with 20-500 nM Latrunculin A, 0.05-1.0 μg/ml Cytochalasin D, and 1-100 nM Jasplakinolide. Latrunculin A inhibits actin polymerization by forming a 1:1 molar complex with G-actin, thereby inhibiting its ability to polymerize into F-actin (M. Coue, S. L. Brenner, I. Spector, E. D. Korn, FEBS Lett 213, 316 (Mar. 23, 1987)). Cytochalasin D inhibits actin polymerization by binding to the growing ends of F-actin chains and thus preventing the attachment and addition of G-actin monomers (J. A. Cooper, J Cell Biol 105, 1473 (October, 1987)). Jasplakinolide is known to bind to and stabilize actin filaments in vitro (M. R. Bubb, I. Spector, B. B. Beyer, K. M. Fosen, J Biol Chem 275, 5163 (Feb. 18, 2000)).
(§3) To examine the role of microtubules in LR asymmetry, 0.2-2 μM Nocodazole, and 0.3-30 nM Taxol were used. Nocodazole suppresses microtubule dynamics by destabilizing and disassembling microtubules (J. A. Cooper, J Cell Biol 105, 1473 (October, 1987)). Taxol inhibits the microtubule depolymerization and stabilizes microtubules (W. B. Derry, L. Wilson, M. A. Jordan, Biochemistry 34, 2203 (Feb. 21, 1995)).
To examine the role of the actomyosin motor, cells were tested with […], […], and 0.5-10 […]. Y-27632 works as a selective inhibitor to prevent the phosphorylation of the myosin regulatory light chain (T. Ishizaki et al., Mol Pharmacol 57, 976 (May, 2000)). ML-7 acts as a selective inhibitor of the myosin light chain kinase (M. Isemura, T. Mita, K. Satoh, K. Narumi, M. Motomiya, Cell Biol Int Rep 15, 965 (October, 1991)). Blebbistatin forms a low actin affinity complex through binding to myosin heads, causing the inhibition of nonmuscle myosin II ATPase activity (M. Kovacs, J. Toth, C. Hetenyi, A. Malnasi-Csizmadia, J. R. Sellers, J Biol Chem 279, 35557 (Aug. 20, 2004)).
(§4) High-resolution phase contrast images of live patterned cells were taken at a resolution of ˜0.645 μm/pixel, and analyzed using a custom-written code in MatLab (MathWorks, Natick, Mass.), based on the automated detection of intensity gradient and circular statistics (W. J. Karlon et al., Ann Biomed Eng 27, 712 (November-December, 1999)). In this algorithm, the intensity gradient was determined pixel by pixel with a Gaussian differential filter. In each sub-region of the image, the dominant local direction was determined using an accumulator scheme, in which the orientation of each pixel follows a von Mises distribution, a circular analogue of the linear normal distribution. Subsequently, the orientation in each sub-region was converted into an angle bias based on its deviation from the circumferential direction (see e.g., FIG. 2C). Mean angle and standard deviation of LR asymmetry were calculated for all sub-regions, using circular statistics (N. I. Fish, Statistical Analysis of Circular Data. (Cambridge University Press, Cambridge, UK, 1993)). […] The sub-region size was therefore set to 20 by 20 pixels (i.e., 13 by 13 μm).
(§5) Cell chirality on ring patterns (i.e., clockwise or counterclockwise alignment) was determined from calculated biased angles in local regions with one sample test for the mean angle, analogous to the one sample t-test in linear statistics (N. I. Fish, Statistical Analysis of Circular Data. (Cambridge University Press, Cambridge, UK, 1993)).

[2] = system: hUVEC cells; assay: Cell chirality (alignment) on micropatterned rings, drug treatment, hUVEC; format: cell-based, human; conditions: hUVEC on ring patterns, count of rings
Experimental: as §1, §2, §3, §4, §5

## C/C1=C\[C@H](C)C[C@H](C)OC(=O)C[C@H](c2ccc(O)cc2)NC(=O)[C@@H](Cc2c(Br)[nH]c3ccccc23)N(C)C(=O)[C@H](C)NC(=O)[C@@H](C)C1 [Jasplakinolide]
[1]; drug 1 nM
  CCW: counter-clockwise alignment: 34
  CW: clockwise alignment: 2
  N/S: not significantly biased to CW or CCW: 10
[1]; drug 3 nM
  CCW: counter-clockwise alignment: 18
  CW: clockwise alignment: 3
  N/S: not significantly biased to CW or CCW: 4
[1]; drug 10 nM
  CCW: counter-clockwise alignment: 14
  CW: clockwise alignment: 7
  N/S: not significantly biased to CW or CCW: 5
[1]; drug 30 nM
  CCW: counter-clockwise alignment: 0
  CW: clockwise alignment: 18
  N/S: not significantly biased to CW or CCW: 4
[1]; drug 100 nM
  CCW: counter-clockwise alignment: 0
  CW: clockwise alignment: 7
  N/S: not significantly biased to CW or CCW: 9
[1]
  effect on chirality of C2C12 cells: reversed the chirality of C2C12 cells from CCW into CW
[2]; drug 1 nM
  CCW: counter-clockwise alignment: 1
  CW: clockwise alignment: 32
  N/S: not significantly biased to CW or CCW: 1
[2]; drug 3 nM
  CCW: counter-clockwise alignment: 2
  CW: clockwise alignment: 22
  N/S: not significantly biased to CW or CCW: 5
[2]; drug 10 nM
  CCW: counter-clockwise alignment: 5
  CW: clockwise alignment: 22
  N/S: not significantly biased to CW or CCW: 10
[2]; drug 30 nM
  CCW: counter-clockwise alignment: 0
  CW: clockwise alignment: 5
  N/S: not significantly biased to CW or CCW: 4
[2]; drug 100 nM
  CCW: counter-clockwise alignment: 0
  CW: clockwise alignment: 1
  N/S: not significantly biased to CW or CCW: 5

## COC(=O)Nc1nc2ccc(C(=O)c3cccs3)cc2[nH]1 [Nocodazole]
[1]
  effect on cell chirality: did not change cell chirality
[1]; drug 200 nM
  CCW: counter-clockwise alignment: 57
  CW: clockwise alignment: 0
  N/S: not significantly biased to CW or CCW: 18
[1]; drug 500 nM
  CCW: counter-clockwise alignment: 35
  CW: clockwise alignment: 0
  N/S: not significantly biased to CW or CCW: 58
[1]; drug 1 μM
  CCW: counter-clockwise alignment: 18
  CW: clockwise alignment: 0
  N/S: not significantly biased to CW or CCW: 21
[1]; drug 2 μM
  CCW: counter-clockwise alignment: 1
  CW: clockwise alignment: 0
  N/S: not significantly biased to CW or CCW: 6
[2]; drug 200 nM
  CCW: counter-clockwise alignment: 3
  CW: clockwise alignment: 25
  N/S: not significantly biased to CW or CCW: 76
[2]; drug 500 nM
  CCW: counter-clockwise alignment: 2
  CW: clockwise alignment: 14
  N/S: not significantly biased to CW or CCW: 27
[2]; drug 1 μm
  CCW: counter-clockwise alignment: 0
  CW: clockwise alignment: 3
  N/S: not significantly biased to CW or CCW: 4
[2]; drug 2 μm
  CCW: counter-clockwise alignment: 0
  CW: clockwise alignment: 1
  N/S: not significantly biased to CW or CCW: 7

## O=S(=O)(c1cccc2c(I)cccc12)N1CCCNCC1 [ML-7]
[1]
  effect on left-right asymmetry: did not affect left-right asymmetry

## Cc1ccc2c(c1)C(=O)C1(O)CCN(c3ccccc3)C1=N2 (stereo not shown) [Blebbistatin]
[1]
  effect on left-right asymmetry: did not affect left-right asymmetry

## C=C1[C@@H](C)[C@H]2[C@H](Cc3ccccc3)NC(=O)[C@]23[C@H](OC(C)=O)/C=C/[C@@](C)(O)C(=O)[C@@H](C)C/C=C/[C@H]3[C@@H]1O [Cytochalasin D]
[1]; drug 0.05 μg/mL
  CCW: counter-clockwise alignment: 8
  CW: clockwise alignment: 9
  N/S: not significantly biased to CW or CCW: 6
[1]; drug 0.1 μg/mL
  CCW: counter-clockwise alignment: 3
  CW: clockwise alignment: 7
  N/S: not significantly biased to CW or CCW: 10
[1]; drug 0.2 μg/mL
  CCW: counter-clockwise alignment: 5
  CW: clockwise alignment: 21
  N/S: not significantly biased to CW or CCW: 23
[1]; drug 0.5 μg/mL
  CCW: counter-clockwise alignment: 0
  CW: clockwise alignment: 10
  N/S: not significantly biased to CW or CCW: 14
[1]; drug 1 μg/mL
  CCW: counter-clockwise alignment: 1
  CW: clockwise alignment: 8
  N/S: not significantly biased to CW or CCW: 20
[1]
  effect on chirality of C2C12 cells: reversed the chirality of C2C12 cells from CCW into CW
[2]; drug 0.1 μg/mL
  CCW: counter-clockwise alignment: 0
  CW: clockwise alignment: 8
  N/S: not significantly biased to CW or CCW: 12
[2]; drug 0.2 μg/mL
  CCW: counter-clockwise alignment: 0
  CW: clockwise alignment: 10
  N/S: not significantly biased to CW or CCW: 22
[2]; drug 0.5 μg/mL
  CCW: counter-clockwise alignment: 1
  CW: clockwise alignment: 0
  N/S: not significantly biased to CW or CCW: 6

## CC(=O)O[C@H]1C(=O)[C@@]2(C)[C@H]([C@H](OC(=O)c3ccccc3)[C@]3(O)C[C@H](OC(=O)[C@H](O)[C@@H](NC(=O)c4ccccc4)c4ccccc4)C(C)=C1C3(C)C)[C@]1(OC(C)=O)CO[C@@H]1C[C@@H]2O [Taxol]
[1]
  effect on cell chirality: did not change cell chirality
[1]; drug 0.3 nM
  CCW: counter-clockwise alignment: 24
  CW: clockwise alignment: 1
  N/S: not significantly biased to CW or CCW: 3
[1]; drug 1 nM
  CCW: counter-clockwise alignment: 20
  CW: clockwise alignment: 1
  N/S: not significantly biased to CW or CCW: 6
[1]; drug 3 nM
  CCW: counter-clockwise alignment: 31
  CW: clockwise alignment: 2
  N/S: not significantly biased to CW or CCW: 9
[1]; drug 10 nM
  CCW: counter-clockwise alignment: 17
  CW: clockwise alignment: 2
  N/S: not significantly biased to CW or CCW: 8
[1]; drug 30 nM
  CCW: counter-clockwise alignment: 16
  CW: clockwise alignment: 2
  N/S: not significantly biased to CW or CCW: 13
[2]; drug 0.3 nM
  CCW: counter-clockwise alignment: 0
  CW: clockwise alignment: 8
  N/S: not significantly biased to CW or CCW: 0
[2]; drug 1 nM
  CCW: counter-clockwise alignment: 1
  CW: clockwise alignment: 34
  N/S: not significantly biased to CW or CCW: 4
[2]; drug 3 nM
  CCW: counter-clockwise alignment: 2
  CW: clockwise alignment: 7
  N/S: not significantly biased to CW or CCW: 9
[2]; drug 10 nM
  CCW: counter-clockwise alignment: 5
  CW: clockwise alignment: 10
  N/S: not significantly biased to CW or CCW: 11
[2]; drug 30 nM
  CCW: counter-clockwise alignment: 2
  CW: clockwise alignment: 4
  N/S: not significantly biased to CW or CCW: 7

## C[C@@H](N)[C@H]1CC[C@H](C(=O)Nc2ccncc2)CC1 [Y-27632]
[1]
  effect on left-right asymmetry: did not affect left-right asymmetry
